biological target: T1, 6-phosphofructo-2-kinase/fructose-2,6-bisphosphatase 3 (Homo sapiens, UniProt Q16875); assay: Inhibition of iPFK2 (unknown origin) assessed as reduction in enzyme-mediated fructose-6-phosphate phosphorylation by measuring ATP consumption incubated for 3 hrs by luciferase-luciferin-coupled chemiluminescence assay
T1 sequence (Q16875 whole entry): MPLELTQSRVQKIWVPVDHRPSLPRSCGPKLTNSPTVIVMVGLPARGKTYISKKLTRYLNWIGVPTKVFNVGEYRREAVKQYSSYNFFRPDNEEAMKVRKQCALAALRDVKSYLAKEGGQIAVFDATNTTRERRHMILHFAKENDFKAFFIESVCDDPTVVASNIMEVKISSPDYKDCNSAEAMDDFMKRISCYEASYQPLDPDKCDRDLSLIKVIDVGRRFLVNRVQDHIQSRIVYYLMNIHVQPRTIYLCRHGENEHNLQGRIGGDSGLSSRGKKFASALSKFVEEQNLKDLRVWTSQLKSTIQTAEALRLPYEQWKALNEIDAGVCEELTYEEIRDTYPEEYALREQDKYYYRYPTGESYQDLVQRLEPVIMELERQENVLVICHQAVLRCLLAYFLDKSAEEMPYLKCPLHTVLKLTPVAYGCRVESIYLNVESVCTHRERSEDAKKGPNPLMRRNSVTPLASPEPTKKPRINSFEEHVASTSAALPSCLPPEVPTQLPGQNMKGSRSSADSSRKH

IC50 [nM]	Compound
> 1000	COc1cccc([C@H](C)Nc2cc(-c3ccc4ncoc4c3)nc(C)n2)c1
> 1000	COc1cccc([C@H](C)Nc2cc(-c3ccc4ncn(C)c4c3)nc(C)n2)c1
> 1000	COc1cccc(-c2cc(NC3CCCc4ccccc43)nc(C)n2)c1 (stereo not given)
> 1000	COCC(C)Nc1cc(-c2ccc3ncsc3c2)nc(C)n1 (stereo not given)
> 1000	Cc1nc(N[C@@H]2CCCc3ccccc32)cc(-c2ccc3[nH]ncc3c2)n1
> 1000	COc1cccc(-c2cc(NC(C)c3cccc(S(=O)(=O)NCC(=O)O)c3)nc(C)n2)c1 (stereo not given)
> 1000	COc1cccc([C@H](C)Nc2cc(-c3cc(OC)c(OC)c(OC)c3)nc(C)n2)c1
> 1000	CCOC(=O)Cc1coc2ccc(-c3cc(N[C@@H]4CCCc5ccccc54)nc(C)n3)cc12
500	Cc1nc(N[C@@H]2CCCc3ccccc32)cc(-c2cccc(Cl)c2)n1
> 1000	COc1cccc([C@H](C)Nc2cc(-c3ccccc3F)nc(C)n2)c1
> 1000	Cc1nc(N[C@@H]2CCCc3ccccc32)cc(-c2cccc3cc[nH]c23)n1
> 1000	CCC(C)Nc1cc(-c2ccc3ncsc3c2)nc(C)n1 (stereo not given)
> 1000	CCCCCNc1cc(-c2ccc3ncsc3c2)nc(C)n1
> 1000	Cc1nc(NC(C)c2cccc(OCc3ccccc3)c2)cc(-c2ccc3ncsc3c2)n1 (stereo not given)
> 1000	COc1cccc([C@@H](C)Nc2cc(-c3ccc4ncsc4c3)nc(C)n2)c1
500	Cc1nc(NC(C)c2cccc(OCc3cccnc3)c2)cc(-c2ccc3ncsc3c2)n1 (stereo not given)
> 1000	Cc1nc(N[C@@H]2CCCc3ccccc32)cc(-c2cccc(OC(F)(F)F)c2)n1
> 1000	Cc1nc(N[C@@H]2CCCc3ccccc32)cc(-c2cccc3c2ccn3C)n1
> 1000	COCc1cccc(-c2cc(N[C@@H]3CCCc4ccccc43)nc(C)n2)c1
> 1000	COc1cccc(-c2cc(NC(CCO)c3cccc(OC)c3)nc(C)n2)c1 (stereo not given)
> 1000	Cc1nc(N[C@@H]2CCCc3ccccc32)cc(-c2cccc3[nH]ccc23)n1
500	Cc1nc(NC(C)c2cccc(-c3cnn(C)c3)c2)cc(-c2ccc3c(c2)N(C)CCO3)n1 (stereo not given)
> 1000	CCOC(=O)CC(Nc1cc(-c2cccc(OC)c2)nc(C)n1)c1cccc(OC)c1 (stereo not given)

IC50 [nM]	Compound
> 1000	COc1cccc([C@H](C)Nc2cc(-c3cc(OC)ccc3Cl)nc(C)n2)c1
> 1000	Cc1nc(NC(C)c2cccc(-c3cnn(C)c3)c2)cc(-c2ccc3c(c2)OCCO3)n1 (stereo not given)
> 1000	Cc1nc(N[C@@H](C)c2cccc(-c3cccn3C)c2)cc(-c2ccc3ncsc3c2)n1
> 1000	Cc1nc(N[C@@H]2CCCc3ccccc32)cc(-c2ccc3c(c2)N(CCO)CC3)n1
> 1000	COc1cccc([C@H](C)Nc2cc(-c3cccc(N(C)C)c3)nc(C)n2)c1
> 1000	COc1cccc([C@H](C)Nc2cc(-c3ccc4cc[nH]c4c3)nc(C)n2)c1
> 1000	COc1cccc(-c2cc(NC(C)c3cccc(NCC(=O)O)c3)nc(C)n2)c1 (stereo not given)
500	Cc1nc(NC(C)c2cccc(OCc3csc(C)n3)c2)cc(-c2ccc3ncsc3c2)n1 (stereo not given)
500	Cc1nc(NC(C)c2cccc(-c3ccoc3)c2)cc(-c2ccc3occ(C)c3c2)n1 (stereo not given)
500	Cc1nc(N[C@@H](C)c2cccc(-c3cc[nH]n3)c2)cc(-c2ccc3ncsc3c2)n1
> 1000	Cc1nc(N[C@@H]2CCCc3ccccc32)cc(-c2ccc3nc[nH]c3c2)n1
500	Cc1nc(NC(C)c2cccc(-c3ccc(F)nc3C)c2)cc(-c2ccc3ncsc3c2)n1 (stereo not given)
500	CCc1ccc(-c2cc(NC(C)c3cccc(-c4cnn(C)c4)c3)nc(C)n2)cc1 (stereo not given)
> 1000	CC(=O)N1CCOc2ccc(-c3cc(N[C@@H]4CCCc5ccccc54)nc(C)n3)cc21
500	Cc1nc(NC(C)c2cccc(-c3cnn(C)c3)c2)cc(-c2cccc(O)c2)n1 (stereo not given)
> 1000	Cc1nc(NC(C)c2cccc(-c3ccsc3)c2)cc(-c2ccc3occ(C)c3c2)n1 (stereo not given)
> 1000	COc1cccc([C@H](C)Nc2cc(-c3ccc(F)cc3)nc(C)n2)c1
> 1000	COc1cccc([C@H](C)Nc2cc(-c3cccc4[nH]ccc34)nc(C)n2)c1
500	Cc1nc(NC(C)c2cccc(OCC(=O)NCCN(C)C)c2)cc(-c2ccc3ncsc3c2)n1 (stereo not given)
> 1000	Cc1nc(NC2CCOc3ccc([N+](=O)[O-])cc32)cc(-c2ccc3ncsc3c2)n1 (stereo not given)
> 1000	CCc1coc2ccc(-c3cc(NC(C)c4cccc(-c5cnn(C)c5)c4)nc(C)n3)cc12 (stereo not given)
> 1000	COC(=O)CNc1cccc(CNc2cc(-c3cccc(OC)c3)nc(C)n2)c1
500	CNc1ccc(-c2cc(N[C@@H]3CCCc4ccccc43)nc(C)n2)cc1

IC50 [nM]	Compound
> 1000	COc1cccc([C@H](C)Nc2cc(-c3ccc(N(C)C)cc3)nc(C)n2)c1
> 1000	Cc1nc(NCCc2ccccn2)cc(-c2ccc3ncsc3c2)n1
> 1000	CC(=O)Nc1ccc2c(c1)C(Nc1cc(-c3ccc4ncsc4c3)nc(C)n1)CCO2 (stereo not given)
> 1000	CCC(Nc1cc(-c2cccc(OC)c2)nc(C)n1)c1cccc(OC)c1 (stereo not given)
500	Cc1nc(NC(C)c2cccc(OCCF)c2)cc(-c2ccc3ncsc3c2)n1 (stereo not given)
500	COc1cccc([C@H](C)Nc2cc(-c3cccc(Cl)c3)nc(C)n2)c1
500	Cc1nc(NC(C)c2cccc(OCCCC(=O)N(C)C)c2)cc(-c2ccc3ncsc3c2)n1 (stereo not given)
> 1000	Cc1nc(NCCc2ccc(O)cc2)cc(-c2ccc3ncsc3c2)n1
> 1000	COc1cccc([C@@H](C)Nc2cc(-c3ccc4occ(C)c4c3)nc(C)n2)c1
500	Cc1nc(NCCC(C)C)cc(-c2ccc3ncsc3c2)n1
> 1000	CCOC(=O)CCNC(=O)CC(Nc1cc(-c2cccc(OC)c2)nc(C)n1)c1cccc(OC)c1 (stereo not given)
> 1000	COC(=O)CN1CCc2ccc(-c3cc(N[C@@H]4CCCc5ccccc54)nc(C)n3)cc21
500	Cc1nc(NC(C)c2cccc(N3CCOCC3)c2)cc(-c2ccc3ncsc3c2)n1 (stereo not given)
> 1000	CCCCCC(C)Nc1cc(-c2ccc3ncsc3c2)nc(C)n1 (stereo not given)
> 1000	Cc1nc(NC(C)c2cccc(OCCn3cccc3)c2)cc(-c2ccc3ncsc3c2)n1 (stereo not given)
> 1000	Cc1nc(N[C@@H]2CCCc3ccccc32)cc(-c2ccc3c(c2)NCC3)n1
500	Cc1nc(NC(C)c2cccc(-c3cnn(C)c3)c2)cc(-c2ccc3c(c2)CCO3)n1 (stereo not given)
> 1000	COc1cccc(-c2cc(NC(CC(=O)NCCCN(C)C)c3cccc(OC)c3)nc(C)n2)c1 (stereo not given)
> 1000	COc1ccc(F)c(CNc2cc(-c3ccc4ncsc4c3)nc(C)n2)c1Cl
> 1000	COC(=O)CN(C(=O)OC(C)(C)C)S(=O)(=O)c1cccc(C(C)Nc2cc(-c3cccc(OC)c3)nc(C)n2)c1 (stereo not given)
> 1000	Cc1nc(N[C@@H](C)c2cccc(-c3ccccc3)c2)cc(-c2ccc3ncsc3c2)n1
500	Cc1nc(NC2CC(C)(C)Oc3ccccc32)cc(-c2ccc3ncsc3c2)n1 (stereo not given)
> 1000	CCn1cnc2ccc(-c3cc(N[C@@H]4CCCc5ccccc54)nc(C)n3)cc21

IC50 [nM]	Compound
> 1000	COc1cccc(C(CCC#N)Nc2cc(-c3ccc4ncsc4c3)nc(C)n2)c1 (stereo not given)
500	Cc1nc(NC(C)c2cccc(Br)c2)cc(-c2ccc3ncsc3c2)n1 (stereo not given)
500	Cc1nc(N[C@@H]2CCCc3ccccc32)cc(-c2ccc3c(ccn3C)c2)n1
> 1000	COc1cccc([C@H](C)Nc2cc(-c3cccc4cc[nH]c34)nc(C)n2)c1
> 1000	COc1cccc([C@H](C)Nc2cc(-c3ccc4[nH]ncc4c3)nc(C)n2)c1
500	Cc1nc(N[C@@H]2CCCc3ccccc32)cc(-c2ccc3c(c2)NCCO3)n1
500	Cc1nc(NC(C)c2cccc(OCCCN(C)C)c2)cc(-c2ccc3ncsc3c2)n1 (stereo not given)
> 1000	COc1cccc(-c2cc(N[C@H]3CCCc4ccccc43)nc(C)n2)c1
500	Cc1nc(NC(C)c2cccc(OCc3ccn(C)n3)c2)cc(-c2ccc3occc3c2)n1 (stereo not given)
500	Cc1nc(N[C@@H](C)c2cccc(-c3ccccc3)c2)cc(-c2ccc3occ(C)c3c2)n1
> 1000	Cc1nc(N[C@@H]2CCCc3ccccc32)cc(-c2ccc3c(c2)OC(F)(F)O3)n1
500	Cc1nc(NCCC2=CCCCC2)cc(-c2ccc3ncsc3c2)n1
500	Cc1nc(NC(C)c2cccc(OCC(O)CF)c2)cc(-c2ccc3ncsc3c2)n1 (stereo not given)
> 1000	COc1cccc(-c2cc(Nc3cccc4ccccc34)nc(C)n2)c1
500	Cc1nc(N[C@H]2CCCc3ccccc32)cc(-c2ccc3ncsc3c2)n1
> 1000	CCCOc1cccc(C(C)Nc2cc(-c3ccc4ncsc4c3)nc(C)n2)c1 (stereo not given)
> 1000	COc1cccc([C@H](C)Nc2cc(-c3ccccc3C)nc(C)n2)c1
> 1000	Cc1nc(N[C@@H]2CCCc3ccccc32)cc(-c2ccc3c(c2)N(CCO)CCO3)n1
> 1000	Cc1nc(N[C@@H]2CCCc3ccccc32)cc(-c2ccc3cn[nH]c3c2)n1
> 1000	Cc1nc(N[C@@H]2CCCc3ccccc32)cc(-c2ccc3occ(CC(=O)NCCO)c3c2)n1
> 1000	COc1cccc([C@H](C)Nc2cc(-c3ccccc3Cl)nc(C)n2)c1
> 1000	Cc1nc(N[C@@H](C)C(C)(C)C)cc(-c2ccc3ncsc3c2)n1

biological target: T1, 6-phosphofructo-2-kinase/fructose-2,6-bisphosphatase 3; assay: Inhibition of iPFK2 (unknown origin) assessed as reduction in enzyme-mediated fructose-6-phosphate phosphorylation by measuring NADH absorbance pre-incubated for 10 mins before ATP/substrate addition followed by incubation for 1 hr by UV-Visible spectrometry based iPFK-2/PPI-PFK coupled enzyme assay

IC50 [nM]	Compound
500	Cc1nc(NC(C)c2cccc(OCC#N)c2)cc(-c2ccc3ncsc3c2)n1 (stereo not given)
> 1000	Cc1nc(NC(C)c2cccc(OCC(=O)N3CCC3)c2)cc(-c2ccc3ncsc3c2)n1 (stereo not given)
500	Cc1nc(NC(C)c2cccc(S(N)(=O)=O)c2)cc(-c2ccc3ncsc3c2)n1 (stereo not given)
> 1000	Cc1nc(NC(C)c2cccc(OCC(=O)N3CCCC3)c2)cc(-c2ccc3ncsc3c2)n1 (stereo not given)
> 1000	Cc1nc(NC(C)c2cc(O)ccc2F)cc(-c2ccc3ncsc3c2)n1 (stereo not given)
500	Cc1nc(NC(C)c2cccc(OCC(=O)N3CC3C)c2)cc(-c2ccc3ncsc3c2)n1 (stereo not given)
500	Cc1nc(NC(C)c2cccc(OCC(=O)N(C)C)c2)cc(-c2ccc3ncsc3c2)n1 (stereo not given)
> 1000	Cc1cc(COc2cccc([C@@H](C)Nc3cc(-c4ccc5ncsc5c4)nc(C)n3)c2)n(C)n1
500	Cc1nc(NC(C)c2cccc(OCC(=O)N3CCCCC3)c2)cc(-c2ccc3ncsc3c2)n1 (stereo not given)

Source: ChEMBL document CHEMBL3727358, “Inhibitors of inducible form of 6-phosphofructose-2-kinase” (2014)
